Assay results published in PubChem BioAssay (NCI).
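Assay format: 96-well plates, 48-hour exposure. At the TGI there is no net growth.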

Columns and labels:
Assay in all cases: NCI anticancer screen, dose series, 48 h
786-0 renal = tested on: 786-0 renal
A498 renal = tested on: A498 renal
A549 NSCLC = tested on: A549 NSCLC
ACHN renal = tested on: ACHN renal
BT-549 breast = tested on: BT-549 breast
CCRF-CEM leukemia = tested on: CCRF-CEM leukemia
DU-145 prostate = tested on: DU-145 prostate
EKVX NSCLC = tested on: EKVX NSCLC
HCC-2998 colon = tested on: HCC-2998 colon
HCT-116 colon = tested on: HCT-116 colon
HCT-15 colon = tested on: HCT-15 colon
HOP-62 NSCLC = tested on: HOP-62 NSCLC
HOP-92 NSCLC = tested on: HOP-92 NSCLC
HS 578T breast = tested on: HS 578T breast
HT29 colon = tested on: HT29 colon
IGROV1 ovarian = tested on: IGROV1 ovarian
K-562 leukemia = tested on: K-562 leukemia
KM12 colon = tested on: KM12 colon
LOX IMVI melanoma = tested on: LOX IMVI melanoma
M14 melanoma = tested on: M14 melanoma
MCF7 breast = tested on: MCF7 breast
MDA-MB-231 breast = tested on: MDA-MB-231 breast
MDA-MB-435 = tested on: MDA-MB-435
MDA-N = tested on: MDA-N
MOLT-4 leukemia = tested on: MOLT-4 leukemia
NCI-H226 lung = tested on: NCI-H226 lung
NCI-H460 lung = tested on: NCI-H460 lung
NCI-H522 lung = tested on: NCI-H522 lung
NCI/ADR-RES ovarian = tested on: NCI/ADR-RES ovarian
OVCAR-3 ovarian = tested on: OVCAR-3 ovarian
OVCAR-4 ovarian = tested on: OVCAR-4 ovarian
OVCAR-5 ovarian = tested on: OVCAR-5 ovarian
OVCAR-8 ovarian = tested on: OVCAR-8 ovarian
PC-3 prostate = tested on: PC-3 prostate
RPMI-8226 leukemia = tested on: RPMI-8226 leukemia
SF-268 CNS = tested on: SF-268 CNS
SF-295 CNS = tested on: SF-295 CNS
SF-539 CNS = tested on: SF-539 CNS
SK-MEL-2 melanoma = tested on: SK-MEL-2 melanoma
SK-MEL-28 melanoma = tested on: SK-MEL-28 melanoma
SK-MEL-5 melanoma = tested on: SK-MEL-5 melanoma
SK-OV-3 ovarian = tested on: SK-OV-3 ovarian
SN12C renal = tested on: SN12C renal
SNB-19 CNS = tested on: SNB-19 CNS
SNB-75 CNS = tested on: SNB-75 CNS
SR leukemia = tested on: SR leukemia
SW-620 colon = tested on: SW-620 colon
TK-10 renal = tested on: TK-10 renal
U251 CNS = tested on: U251 CNS
UACC-257 melanoma = tested on: UACC-257 melanoma
UACC-62 melanoma = tested on: UACC-62 melanoma
UO-31 renal = tested on: UO-31 renal
CAKI-1 renal = tested on: CAKI-1 renal
COLO 205 colon = tested on: COLO 205 colon
HL-60(TB) leukemia = tested on: HL-60(TB) leukemia
MALME-3M melanoma = tested on: MALME-3M melanoma
NCI-H23 lung = tested on: NCI-H23 lung
RXF 393 renal = tested on: RXF 393 renal

## COc1cc2c(cc1OCCCNC(=O)c1cc3ccccc3[nH]1)N=C[C@@H]1CCCN1C2=O
786-0 renal
  TGI: 41.4 µM
A498 renal
  TGI: 0.257 µM
A549 NSCLC
  TGI: > 100 µM
ACHN renal
  TGI: > 100 µM
BT-549 breast
  TGI: 0.559 µM
CCRF-CEM leukemia
  TGI: > 100 µM
DU-145 prostate
  TGI: > 34.3 µM
EKVX NSCLC
  TGI: 5.68 µM
HCC-2998 colon
  TGI: 10.5 µM
HCT-116 colon
  TGI: 14.3 µM
HCT-15 colon
  TGI: > 26.9 µM
HOP-62 NSCLC
  TGI: 21.6 µM
HOP-92 NSCLC
  TGI: > 100 µM
HS 578T breast
  TGI: 0.562 µM
HT29 colon
  TGI: > 34.3 µM
IGROV1 ovarian
  TGI: 0.74 µM
K-562 leukemia
  TGI: > 100 µM
KM12 colon
  TGI: 1.84 µM
LOX IMVI melanoma
  TGI: > 100 µM
M14 melanoma
  TGI: 1.15 µM
MCF7 breast
  TGI: > 48.1 µM
MDA-MB-231 breast
  TGI: > 35.2 µM
MDA-MB-435
  TGI: 0.716 µM
MDA-N
  TGI: 1.87 µM
MOLT-4 leukemia
  TGI: > 100 µM
NCI-H226 lung
  TGI: 2.96 µM
NCI-H460 lung
  TGI: > 100 µM
NCI-H522 lung
  TGI: 0.0462 µM
NCI/ADR-RES ovarian
  TGI: 9.99 µM
OVCAR-3 ovarian
  TGI: > 100 µM
OVCAR-4 ovarian
  TGI: 11.7 µM
OVCAR-5 ovarian
  TGI: > 33.3 µM
OVCAR-8 ovarian
  TGI: 3.64 µM
PC-3 prostate
  TGI: 5.79 µM
RPMI-8226 leukemia
  TGI: > 100 µM
SF-268 CNS
  TGI: 0.237 µM
SF-295 CNS
  TGI: > 31.9 µM
SF-539 CNS
  TGI: 0.539 µM
SK-MEL-2 melanoma
  TGI: 0.418 µM
SK-MEL-28 melanoma
  TGI: 1.65 µM
SK-MEL-5 melanoma
  TGI: 0.297 µM
SK-OV-3 ovarian
  TGI: > 60.2 µM
SN12C renal
  TGI: 14.9 µM
SNB-19 CNS
  TGI: > 38.3 µM
SNB-75 CNS
  TGI: 2.01 µM
SR leukemia
  TGI: > 100 µM
SW-620 colon
  TGI: > 100 µM
TK-10 renal
  TGI: > 47.5 µM
U251 CNS
  TGI: > 33.6 µM
UACC-257 melanoma
  TGI: > 66.4 µM
UACC-62 melanoma
  TGI: 0.705 µM
UO-31 renal
  TGI: > 100 µM

## C[C@]12CCC(O)CC1=CC[C@@H]1[C@@H]2CC[C@]2(C)C(O)[C@H](n3ccnc3)C[C@@H]12 (stereo partly specified)
786-0 renal
  TGI: > 100 µM
A498 renal
  TGI: > 100 µM
A549 NSCLC
  TGI: > 100 µM
ACHN renal
  TGI: > 100 µM
CAKI-1 renal
  TGI: > 100 µM
CCRF-CEM leukemia
  TGI: > 100 µM
COLO 205 colon
  TGI: > 100 µM
DU-145 prostate
  TGI: > 100 µM
EKVX NSCLC
  TGI: > 100 µM
HCT-116 colon
  TGI: > 100 µM
HCT-15 colon
  TGI: > 100 µM
HL-60(TB) leukemia
  TGI: 38.3 µM
HOP-92 NSCLC
  TGI: > 100 µM
HS 578T breast
  TGI: > 100 µM
HT29 colon
  TGI: > 100 µM
IGROV1 ovarian
  TGI: > 100 µM
K-562 leukemia
  TGI: > 100 µM
KM12 colon
  TGI: > 100 µM
LOX IMVI melanoma
  TGI: > 100 µM
M14 melanoma
  TGI: > 100 µM
MALME-3M melanoma
  TGI: > 100 µM
MCF7 breast
  TGI: > 100 µM
MDA-MB-231 breast
  TGI: > 100 µM
MDA-MB-435
  TGI: > 100 µM
MDA-N
  TGI: > 100 µM
MOLT-4 leukemia
  TGI: 80.1 µM
NCI-H226 lung
  TGI: > 100 µM
NCI-H23 lung
  TGI: > 100 µM
NCI-H460 lung
  TGI: > 100 µM
NCI-H522 lung
  TGI: > 100 µM
NCI/ADR-RES ovarian
  TGI: > 100 µM
OVCAR-3 ovarian
  TGI: > 100 µM
OVCAR-4 ovarian
  TGI: > 100 µM
OVCAR-5 ovarian
  TGI: > 100 µM
OVCAR-8 ovarian
  TGI: > 100 µM
PC-3 prostate
  TGI: > 100 µM
RPMI-8226 leukemia
  TGI: > 100 µM
RXF 393 renal
  TGI: > 100 µM
SF-268 CNS
  TGI: > 100 µM
SF-295 CNS
  TGI: > 100 µM
SF-539 CNS
  TGI: > 100 µM
SK-MEL-2 melanoma
  TGI: > 100 µM
SK-MEL-28 melanoma
  TGI: > 100 µM
SK-MEL-5 melanoma
  TGI: > 100 µM
SN12C renal
  TGI: > 100 µM
SNB-19 CNS
  TGI: > 100 µM
SNB-75 CNS
  TGI: > 100 µM
SR leukemia
  TGI: > 100 µM
SW-620 colon
  TGI: > 100 µM
TK-10 renal
  TGI: > 100 µM
U251 CNS
  TGI: > 100 µM
UACC-257 melanoma
  TGI: > 100 µM
UACC-62 melanoma
  TGI: > 100 µM
UO-31 renal
  TGI: > 100 µM
